# Target: T1, GID1 (Oryza sativa subsp. japonica, UniProt Q6L545)
# T1 construct: GST (tag of vector pGEX-4T) (N); made in house
# Test: Saturation/Scatchard and association/dissociation analysis of GA binding to recombinant GID1
# Design: species or system rice
# Conditions: Scatchard plot analysis
# Procedure: Panel a) depicts the saturability for the GA binding of GID1. […] Bar represents the standard deviation (n=3). Panel b) depicts the results of a Scatchard plot for the data of binding shown in a. The Kd value was calculated (correlation coefficient R^2=0.96) from t three independent experimental results. Panel c) depicts the ^3H-GA association/dissociation rate to GID1. […] Bar represents the standard deviation (n=3). […] Upper panel, none of three recombinant proteins of mutant GID1s (GID1-1, 1-2, and 1-3) corresponding to the three gid1 alleles interacted with GA4. […] Bar represents the standard deviation (n=3). Bottom panel, Coomassie brilliant blue stain of the recombinant proteins used in this experiment. Dot represents GID or tag proteins in the SDS-PAGE profile. In this experiment, almost equal amounts of proteins were used for each (80 pmol). Panel e) depicts the gross morphologies of a GID1-overexpressing plant (Actin1 promoter-GID1, right) and wild type plant (control, left) three months after seeding. Bar=50 cm. f) dose-dependent GA response in the elongation of the second leaf sheath of GID1overexpressing plant (closed triangle) and wild type (closed circle). Bar represents the standard deviation (n=5).
# In the gibberellin-binding assay, [1,2,16,17-^3H4]16,17-dihydro-GA4 was used as a labeled GA4. In vitro GA-binding assays were carried out using previous methods with some modifications (Nakajima, M. et al., Biochem. Biophys. Res. Comm. 241, 782-786 (1997)). […] The eluate of the binding buffer (0.6 ml) was discarded, the subsequent eluate (0.2 ml) was collected, and the radioactivity was measured. The specific binding activity, reflecting the number of displaceable GA binding sites, was calculated by subtracting the amount of nonspecific binding from the amount of total binding. […]
# Next, the kinetics of the binding of GID1 to GA was analyzed. To calculate the Kd value of GID1 to GA, the saturability of GA binding was measured using various concentrations of GA4 derivative (FIG. 4a). […]
# T1 sequence (Q6L545 whole entry): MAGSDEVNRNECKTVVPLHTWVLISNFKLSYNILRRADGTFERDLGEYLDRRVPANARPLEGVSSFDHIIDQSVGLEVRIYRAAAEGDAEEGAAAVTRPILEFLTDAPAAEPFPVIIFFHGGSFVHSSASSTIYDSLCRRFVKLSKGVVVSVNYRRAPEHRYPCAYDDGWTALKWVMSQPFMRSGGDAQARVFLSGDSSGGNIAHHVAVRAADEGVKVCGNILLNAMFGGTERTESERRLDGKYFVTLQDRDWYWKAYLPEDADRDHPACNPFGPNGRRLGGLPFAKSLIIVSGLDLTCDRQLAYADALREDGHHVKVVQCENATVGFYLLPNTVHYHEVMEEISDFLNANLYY
smiles,measurement,value
"CC1C[C@]23C[C@H]1CCC2[C@]12CC[C@H](O)[C@](C)(C(=O)O1)[C@H]2[C@@H]3C(=O)O (stereo partly shown) [H2-GA4, 16,17-dihydro-GA4]",Kd,1400 nM

# From US7915050B2, “Regulatory genes for plant differentiation and growth, and use of the same” (National University Corporation Nagoya University, priority 2005, dated 2011)
